As usually defined, the EC50 is the concentration needed to bring the measured effect to its halfway point.

Activity calls are given as the source filed them. How the calls were made is not given here.

The results in this text go back to PubChem BioAssay AID602326 (NMMLSC, 2012).

The target of the assay is Lethal factor (Bacillus anthracis) (UniProt P15917). As to the kind of experiment: Lethal factor protease inhibitors, microsphere cleavage assay, confirmatory dose response, cherry picks (AID 602326). The note with it: multiplex microsphere protease substrate cleavage assay.
Chain of Lethal factor (Bacillus anthracis) (P15917 whole entry, looked up): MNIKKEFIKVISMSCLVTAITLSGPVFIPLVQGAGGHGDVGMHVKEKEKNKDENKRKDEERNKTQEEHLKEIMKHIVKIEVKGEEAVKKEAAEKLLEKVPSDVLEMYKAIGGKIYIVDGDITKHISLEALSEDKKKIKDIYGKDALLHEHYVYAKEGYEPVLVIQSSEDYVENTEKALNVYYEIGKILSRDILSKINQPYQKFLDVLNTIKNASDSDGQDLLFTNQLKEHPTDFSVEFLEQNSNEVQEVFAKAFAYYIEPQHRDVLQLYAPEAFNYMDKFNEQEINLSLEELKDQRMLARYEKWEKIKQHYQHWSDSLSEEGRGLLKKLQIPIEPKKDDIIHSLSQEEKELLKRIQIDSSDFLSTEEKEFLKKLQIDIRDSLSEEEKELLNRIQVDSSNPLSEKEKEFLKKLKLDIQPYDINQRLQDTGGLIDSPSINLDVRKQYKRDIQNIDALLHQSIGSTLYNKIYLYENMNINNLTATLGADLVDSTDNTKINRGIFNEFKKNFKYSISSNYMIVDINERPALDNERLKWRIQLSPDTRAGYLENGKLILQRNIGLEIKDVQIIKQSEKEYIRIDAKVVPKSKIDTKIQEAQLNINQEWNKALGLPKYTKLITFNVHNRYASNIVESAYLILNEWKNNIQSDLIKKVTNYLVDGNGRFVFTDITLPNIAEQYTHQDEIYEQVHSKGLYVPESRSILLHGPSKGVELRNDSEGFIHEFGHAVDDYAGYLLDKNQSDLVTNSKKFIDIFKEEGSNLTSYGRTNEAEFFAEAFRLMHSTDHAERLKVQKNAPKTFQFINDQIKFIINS

In the case of `O=c1c(/C=C(\O)c2ccccc2)nc2ccccc2n1-c1ccccc1`, the EC50 is > 20 µM (inactive).
With `Oc1[nH]c(N=C2N=c3ccccc3=N2)c2ccccc12` the figure was > 20 µM (inactive).
